Experimental data reported in patent US20020111274A1, “1-alkyl-3-[1-(substituted phenyl) benzotriazol-6-yl] uracils” (BASF Aktiengesellschaft, priority 2000, published 2002).

Experiments:
Parameters in all cases: scale not given here
[1] = system: IPOHE Morningglory, Ivyleaf; assay: Postemergence herbicidal evaluation, IPOHE; type: in vivo, Ipomoea hederacea, (L.) Jacq.
Procedure, shortened: (§1)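 Visual injury rating ~2–3 wk post-spray; replicate tests averaged. Two-week-old seedlings; foliar spray at 40 psi; 0.006–0.400 kg ai/ha in 80/20 acetone/water + 1.0% methylated seed oil.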

[2] = system: CHEAL Lambsquarters, Common; assay: Preemergence herbicidal evaluation, CHEAL; type: in vivo, Chenopodium album, L.; details: for CHEAL herbicidal rating: preemergence; for Preemergence herbicidal rating, CHEAL: rated four to five weeks after treatment
Procedure, shortened: (§2)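 Compound applied preemergence as an aqueous acetone spray onto freshly planted cups, dose equivalent approx. 0.013 to 0.800 kg/ha. Evaluation by rating at weeks 4–5.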

[3] = system: ORYSAT Rice, Tebonnet; assay: Preemergence herbicidal evaluation, ORYSAT; type: in vivo, Oryza sativa, (L.); details: for ORYSAT herbicidal rating: preemergence; for Preemergence herbicidal rating, ORYSAT: rated four to five weeks after treatment
Procedure, shortened: as §2

[4] = system: SETVI Foxtail, Green; assay: Postemergence herbicidal evaluation, SETVI; type: in vivo, Setaria viridis, (L.) Beau
Procedure, shortened: as §1

[5] = system: AMBEL Ragweed, Common; assay: Postemergence herbicidal evaluation, AMBEL; type: in vivo, Ambrosia artemisifolia, L.
Procedure, shortened: as §1

[6] = system: AMBEL Ragweed, Common; assay: Preemergence herbicidal evaluation, AMBEL; type: in vivo, Ambrosia artemisifolia, L.; details: for AMBEL herbicidal rating: preemergence; for Preemergence herbicidal rating, AMBEL: rated four to five weeks after treatment
Procedure, shortened: as §2

[7] = system: SETVI Foxtail, Green; assay: Preemergence herbicidal evaluation, SETVI; type: in vivo, Setaria viridis, (L.) Beau; details: for SETVI herbicidal rating: preemergence; for Preemergence herbicidal rating, SETVI: rated four to five weeks after treatment
Procedure, shortened: as §2

[8] = system: TRZAWR Wheat, Winter, cv Riband; assay: Preemergence herbicidal evaluation, TRZAWR; type: in vivo, Triticum aestivum; details: for TRZAWR herbicidal rating: preemergence; for Preemergence herbicidal rating, TRZAWR: rated four to five weeks after treatment
Procedure, shortened: as §2

[9] = system: CHEAL Lambsquarters, Common; assay: Postemergence herbicidal evaluation, CHEAL; type: in vivo, Chenopodium album, L.
Procedure, shortened: as §1

[10] = system: GALAP Galium; assay: Preemergence herbicidal evaluation, GALAP; type: in vivo, Galium aparine; details: for GALAP herbicidal rating: preemergence; for Preemergence herbicidal rating, GALAP: rated four to five weeks after treatment
Procedure, shortened: as §2

[11] = system: CASOB Sicklepod; assay: Preemergence herbicidal evaluation, CASOB; type: in vivo, Cassia obtusifolia, L.; details: for CASOB herbicidal rating: preemergence; for Preemergence herbicidal rating, CASOB: rated four to five weeks after treatment
Procedure, shortened: as §2

[12] = system: ECHOG Barnyardgrass; assay: Postemergence herbicidal evaluation, ECHOG; type: in vivo, Echinochloa crus-galli, (L.) Beau
Procedure, shortened: as §1

[13] = system: GLXMAW Soybean, Williams; assay: Postemergence herbicidal evaluation, GLXMAW; type: in vivo, Glycine max, (L.) Merr. cv Williams
Procedure, shortened: as §1

[14] = system: ABUTH Velvetleaf; assay: Postemergence herbicidal evaluation, ABUTH; type: in vivo, Abutilon theophrasti, Medic.
Procedure, shortened: as §1

[15] = system: IPOHE Morningglory, Ivyleaf; assay: Preemergence herbicidal evaluation, IPOHE; type: in vivo, Ipomoea hederacea, (L.) Jacq.; details: for IPOHE herbicidal rating: preemergence; for Preemergence herbicidal rating, IPOHE: rated four to five weeks after treatment
Procedure, shortened: as §2

[16] = system: ABUTH Velvetleaf; assay: Preemergence herbicidal evaluation, ABUTH; type: in vivo, Abutilon theophrasti, Medic.; details: for ABUTH herbicidal rating: preemergence
Procedure, shortened: as §2

[17] = system: ORYSAT Rice, Tebonnet; assay: Postemergence herbicidal evaluation, ORYSAT; type: in vivo, Oryza sativa, (L.)
Procedure, shortened: as §1

[18] = system: GALAP Galium; assay: Postemergence herbicidal evaluation, GALAP; type: in vivo, Galium aparine
Procedure, shortened: as §1

[19] = system: ECHOG Barnyardgrass; assay: Preemergence herbicidal evaluation, ECHOG; type: in vivo, Echinochloa crus-galli, (L.) Beau; details: for ECHCG herbicidal rating: preemergence; for Preemergence herbicidal rating, ECHCG: rated four to five weeks after treatment
Procedure, shortened: as §2

[20] = system: ZEAMX Corn, Field; assay: Postemergence herbicidal evaluation, ZEAMX; type: in vivo, Zea mays, L. (Sammel-Bezeichnung)
Procedure, shortened: as §1

[21] = system: ZEAMX Corn, Field; assay: Preemergence herbicidal evaluation, ZEAMX; type: in vivo, Zea mays, L. (Sammel-Bezeichnung); details: for ZEAMX herbicidal rating: preemergence; for Preemergence herbicidal rating, ZEAMX: rated four to five weeks after treatment
Procedure, shortened: as §2

[22] = system: CASOB Sicklepod; assay: Postemergence herbicidal evaluation, CASOB; type: in vivo, Cassia obtusifolia, L.
Procedure, shortened: as §1

[23] = system: GLXMAW Soybean, Williams; assay: Preemergence herbicidal evaluation, GLXMAW; type: in vivo, Glycine max, (L.) Merr. cv Williams; details: for GLXMAW herbicidal rating: preemergence; for Preemergence herbicidal rating, GLXMAW: rated four to five weeks after treatment
Procedure, shortened: as §2

[24] = system: TRZAWR Wheat, Winter, cv Riband; assay: Postemergence herbicidal evaluation, TRZAWR; type: in vivo, Triticum aestivum
Procedure, shortened: as §1

[25] = 0.016 kg/ha, postemergence spray, rated about two-three weeks after treatment
[26] = 0.032 kg/ha, postemergence spray, rated about two-three weeks after treatment
[27] = 0.062 kg/ha, postemergence spray, rated about two-three weeks after treatment
[28] = rate 0.008 kg/ha, rated two - three weeks after treatment

With `Cn1c(C(F)(F)F)cc(=O)n(-c2cc3c(cc2F)nnn3-c2ccc(OCC(=O)O)cc2)c1=O` [Example 44] the “Postemergence herbicidal rating IPOHE” value [1, 25] was 7.0, the “Postemergence herbicidal rating IPOHE” value [1, 26] was 9.0 and the “Postemergence herbicidal rating IPOHE” value [1, 27] was 9.0. For the same compound, the “Postemergence herbicidal rating IPOHE” value [1, 28] was 7.0, the CHEAL herbicidal rating ([2]; rate 0.062 kg/ha) was 9.0 and the CHEAL herbicidal rating ([2]; rate 0.125 kg/ha) was 9.0. For the same compound, the “Preemergence herbicidal rating, CHEAL” value ([2]; rate 0.016 kg/ha) was 9.0, the “Preemergence herbicidal rating, CHEAL” value ([2]; rate 0.032 kg/ha) was 9.0 and the ORYSAT herbicidal rating ([3]; rate 0.062 kg/ha) was 5.0. For the same compound, the ORYSAT herbicidal rating ([3]; rate 0.125 kg/ha) was 5.0, the “Preemergence herbicidal rating, ORYSAT” value ([3]; rate 0.016 kg/ha) was 0.0 and the “Preemergence herbicidal rating, ORYSAT” value ([3]; rate 0.032 kg/ha) was 0.0. For the same compound, the “Postemergence herbicidal rating SETVI” value [4, 25] was 4.0, the “Postemergence herbicidal rating SETVI” value [4, 26] was 7.0 and the “Postemergence herbicidal rating SETVI” value [4, 27] was 7.0. The “Postemergence herbicidal rating SETVI” value [4, 28] was 4.0, the “Postemergence herbicidal rating AMBEL” value [5, 25] was 3.0 and the “Postemergence herbicidal rating AMBEL” value [5, 26] was 6.0. The “Postemergence herbicidal rating AMBEL” value [5, 27] was 7.0, the “Postemergence herbicidal rating AMBEL” value [5, 28] was 3.0 and the AMBEL herbicidal rating ([6]; rate 0.062 kg/ha) was 0.0. The AMBEL herbicidal rating ([6]; rate 0.125 kg/ha) was 0.0, the “Preemergence herbicidal rating, AMBEL” value ([6]; rate 0.016 kg/ha) was 1.0 and the “Preemergence herbicidal rating, AMBEL” value ([6]; rate 0.032 kg/ha) was 0.0. For the same compound, the SETVI herbicidal rating ([7]; rate 0.062 kg/ha) was 3.0, the SETVI herbicidal rating ([7]; rate 0.125 kg/ha) was 9.0 and the “Preemergence herbicidal rating, SETVI” value ([7]; rate 0.016 kg/ha) was 0.0. For the same compound, the “Preemergence herbicidal rating, SETVI” value ([7]; rate 0.032 kg/ha) was 0.0, the TRZAWR herbicidal rating ([8]; rate 0.062 kg/ha) was 1.0 and the TRZAWR herbicidal rating ([8]; rate 0.125 kg/ha) was 1.0. For the same compound, the “Preemergence herbicidal rating, TRZAWR” value ([8]; rate 0.016 kg/ha) was 0.0, the “Preemergence herbicidal rating, TRZAWR” value ([8]; rate 0.032 kg/ha) was 0.0 and the “Postemergence herbicidal rating CHEAL” value [9, 25] was 7.0. For the same compound, the “Postemergence herbicidal rating CHEAL” value [9, 26] was 6.0, the “Postemergence herbicidal rating CHEAL” value [9, 27] was 9.0 and the “Postemergence herbicidal rating CHEAL” value [9, 28] was 5.0. The GALAP herbicidal rating ([10]; rate 0.062 kg/ha) was 4.0, the GALAP herbicidal rating ([10]; rate 0.125 kg/ha) was 7.0 and the “Preemergence herbicidal rating, GALAP” value ([10]; rate 0.016 kg/ha) was 3.0. The “Preemergence herbicidal rating, GALAP” value ([10]; rate 0.032 kg/ha) was 5.0, the CASOB herbicidal rating ([11]; rate 0.062 kg/ha) was 2.0 and the CASOB herbicidal rating ([11]; rate 0.125 kg/ha) was 0.0. The “Preemergence herbicidal rating, CASOB” value ([11]; rate 0.016 kg/ha) was 0.0, the “Preemergence herbicidal rating, CASOB” value ([11]; rate 0.032 kg/ha) was 1.0 and the “Postemergence herbicidal rating ECHCG” value [12, 25] was 4.0. For the same compound, the “Postemergence herbicidal rating ECHCG” value [12, 26] was 6.0, the “Postemergence herbicidal rating ECHCG” value [12, 27] was 6.0 and the “Postemergence herbicidal rating ECHCG” value [12, 28] was 3.0. For the same compound, the “Postemergence herbicidal rating GLXMAW” value [13, 25] was 6.5, the “Postemergence herbicidal rating GLXMAW” value [13, 26] was 6.5 and the “Postemergence herbicidal rating GLXMAW” value [13, 27] was 7.0. For the same compound, the “Postemergence herbicidal rating GLXMAW” value [13, 28] was 5.0, the “Postemergence herbicidal rating ABUTH” value [14, 25] was 9.0 and the “Postemergence herbicidal rating ABUTH” value [14, 26] was 7.0. The “Postemergence herbicidal rating ABUTH” value [14, 27] was 9.0, the “Postemergence herbicidal rating ABUTH” value [14, 28] was 9.0 and the IPOHE herbicidal rating ([15]; rate 0.062 kg/ha) was 0.0. The IPOHE herbicidal rating ([15]; rate 0.125 kg/ha) was 2.0, the “Preemergence herbicidal rating, IPOHE” value ([15]; rate 0.016 kg/ha) was 0.0 and the “Preemergence herbicidal rating, IPOHE” value ([15]; rate 0.032 kg/ha) was 0.0. The ABUTH herbicidal rating ([16]; rate 0.062 kg/ha) was 7.0, the ABUTH herbicidal rating ([16]; rate 0.125 kg/ha) was 9.0 and the “Preemergence herbicidal rating, ABUTH” value ([16]; rate 0.032 kg/ha, rated four to five weeks after treatment) was 0.0. The “Postemergence herbicidal rating ORYSAT” value [17, 25] was 2.5, the “Postemergence herbicidal rating ORYSAT” value [17, 26] was 2.5 and the “Postemergence herbicidal rating ORYSAT” value [17, 27] was 3.0. The “Postemergence herbicidal rating ORYSAT” value [17, 28] was 2.5, the “Postemergence herbicidal rating GALAP” value [18, 25] was 0.0 and the “Postemergence herbicidal rating GALAP” value [18, 26] was 1.0. The “Postemergence herbicidal rating GALAP” value [18, 27] was 2.0, the “Postemergence herbicidal rating GALAP” value [18, 28] was 0.0 and the ECHCG herbicidal rating ([19]; rate 0.062 kg/ha) was 0.0. The ECHCG herbicidal rating ([19]; rate 0.125 kg/ha) was 0.0, the “Preemergence herbicidal rating, ECHCG” value ([19]; rate 0.016 kg/ha) was 0.0 and the “Preemergence herbicidal rating, ECHCG” value ([19]; rate 0.032 kg/ha) was 0.0. The “Postemergence herbicidal rating ZEAMX” value [20, 25] was 6.5, the “Postemergence herbicidal rating ZEAMX” value [20, 26] was 6.5 and the “Postemergence herbicidal rating ZEAMX” value [20, 27] was 7.0. The “Postemergence herbicidal rating ZEAMX” value [20, 28] was 4.5, the ZEAMX herbicidal rating ([21]; rate 0.062 kg/ha) was 1.0 and the ZEAMX herbicidal rating ([21]; rate 0.125 kg/ha) was 1.0. For the same compound, the “Preemergence herbicidal rating, ZEAMX” value ([21]; rate 0.016 kg/ha) was 0.0, the “Preemergence herbicidal rating, ZEAMX” value ([21]; rate 0.032 kg/ha) was 0.0 and the “Postemergence herbicidal rating CASOB” value [22, 25] was 0.0. For the same compound, the “Postemergence herbicidal rating CASOB” value [22, 26] was 1.0, the “Postemergence herbicidal rating CASOB” value [22, 27] was 2.0 and the “Postemergence herbicidal rating CASOB” value [22, 28] was 0.0. The GLXMAW herbicidal rating ([23]; rate 0.062 kg/ha) was 0.0, the GLXMAW herbicidal rating ([23]; rate 0.125 kg/ha) was 0.0 and the “Preemergence herbicidal rating, GLXMAW” value ([23]; rate 0.016 kg/ha) was 0.0. For the same compound, the “Preemergence herbicidal rating, GLXMAW” value ([23]; rate 0.032 kg/ha) was 0.0, the “Postemergence herbicidal rating TRZAWR” value [24, 25] was 4.0 and the “Postemergence herbicidal rating TRZAWR” value [24, 26] was 3.5. The “Postemergence herbicidal rating TRZAWR” value [24, 27] was 4.0 and the “Postemergence herbicidal rating TRZAWR” value [24, 28] was 3.0.
